The text below walks through data of article PMC6592620 (Biochemistry, 2018).

In general, Kd refers to the constant that tells how readily two partners part at equilibrium. A low value points to tighter binding.

The assay addresses phiYFP (yellow fluorescent protein from the jellyfish Phialidium sp.) (Phialidium sp. SL-2003, UniProt Q6RYS7). Nature of the assay: fluorescence titration, single site binding model.

In turn, `I` [iodide] showed a Kd of 50 ± 2 mM.
